Article PMC12775823, “Glucosylceramide regulates depression through activating peroxisome proliferator-activated receptor gamma in dorsal striatum” (Theranostics, 2026)

Experiments:
D2-Pparg^f/f mice = test: Behavioral tests in D2-Pparg f/f mice after intra-dorsal striatal microinfusion; assay type: in vivo; settings: microinfusion of GlcCer
Procedure: For intracranial injection, mice were surgically implanted with sterilized guide cannulae in dorsal striatum. Intra-dorsal striatal injection of PDMP (100 μM, 1 μL/injection), pioglitazone (100 μM, 1 μL/injection), UNC (10 μM, 1 μL/injection) was performed 30 min before behavioral test. Mice were intraperitoneally injected with CNO (1 mg/kg/d) before behavioral test.
Elevated plus maze test (EPMT).
Light-dark Transition test (LDT).
Sucrose preference test (SPT).
Forced swimming test (FST).

human PPARγ-LBD = test: Surface plasmon resonance, PPARγ LBD; settings: Figure S7B, C
Procedure: Prepared human PPARγ-LBD and human PPARγ-full length (Active Motif, USA) were immobilized onto a CM5 sensor chip using amine coupling. Briefly, the protein was diluted to 50 μg/mL in immobilization buffer and covalently attached to the CM5 chip via an Amine Coupling Kit (Cytiva, USA), following the manufacturer's instructions. A channel without immobilized protein was used as a blank control. […] Gradient concentrations of GlcCer were injected over both channels at a flow rate of 30 μL/min, with an association time and dissociation time of 85 s each.

human PPARγ-full length = target: T1, human PPARγ-full length (Homo sapiens, UniProt P37231); test: Surface plasmon resonance, full-length hPPARγ; assay type: binding; settings: SPR, steady-state affinity, 25 °C; read-out: equilibrium dissociation constant (KD) for hPPARγ
T1 construct: human PPARγ-full length (Active Motif, USA); purchased Active Motif
T1 sequence (P37231 1-505): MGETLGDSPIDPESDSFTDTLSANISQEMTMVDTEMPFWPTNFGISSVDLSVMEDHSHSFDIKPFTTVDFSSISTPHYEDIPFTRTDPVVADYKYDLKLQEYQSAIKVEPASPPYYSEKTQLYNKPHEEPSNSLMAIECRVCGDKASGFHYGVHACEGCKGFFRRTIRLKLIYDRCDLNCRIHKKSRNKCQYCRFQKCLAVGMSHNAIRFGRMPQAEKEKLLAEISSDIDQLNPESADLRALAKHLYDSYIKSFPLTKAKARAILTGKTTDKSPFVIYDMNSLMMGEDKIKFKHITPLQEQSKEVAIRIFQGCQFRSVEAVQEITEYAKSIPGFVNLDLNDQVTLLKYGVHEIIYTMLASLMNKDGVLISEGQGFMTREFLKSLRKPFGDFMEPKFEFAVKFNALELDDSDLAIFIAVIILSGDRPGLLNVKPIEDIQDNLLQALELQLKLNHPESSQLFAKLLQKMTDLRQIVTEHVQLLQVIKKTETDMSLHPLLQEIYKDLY
Procedure: Prepared human PPARγ-LBD and human PPARγ-full length (Active Motif, USA) were immobilized onto a CM5 sensor chip using amine coupling. Briefly, the protein was diluted to 50 μg/mL in immobilization buffer and covalently attached to the CM5 chip via an Amine Coupling Kit (Cytiva, USA), following the manufacturer's instructions. A channel without immobilized protein was used as a blank control. The positive control, pioglitazone, and the test molecule, GlcCer, were both diluted in running buffer (PBS containing 5% (v/v) DMSO, 3 mM EDTA, and 0.05% (v/v) surfactant P20, pH 7.4). Gradient concentrations of GlcCer were injected over both channels at a flow rate of 30 μL/min, with an association time and dissociation time of 85 s each.

PPARγ [1] = test: PPRE-luciferase (dual-luciferase) activity assay in N2a cells; assay type: cell-based; settings: N2a cells transfected with wild-type Pparg
Procedure: N2a cells were seeded into 24-well plates and cultured for 24 hours before transfection. A DNA mixture containing the PPRE-luciferase reporter plasmid (0.5 μg), PPARγ/ PPARγ mutation plasmid (0.5 μg) and an internal control plasmid pRL-SV-40 (25 ng) was transfected using lipofectamine 3000 transfection reagent (L3000001, Invitrogen, USA) according to the manufacturer's recommendations. After transfection, the cells were incubated for an additional 48 h.

human PPARγ AF1 domain = target: T2, human PPARγ AF1 domain (Homo sapiens, UniProt P37231); test: Surface plasmon resonance, PPARγ AF1 domain; assay type: binding; settings: SPR
T2 sequence (P37231 31-135 limits assumed): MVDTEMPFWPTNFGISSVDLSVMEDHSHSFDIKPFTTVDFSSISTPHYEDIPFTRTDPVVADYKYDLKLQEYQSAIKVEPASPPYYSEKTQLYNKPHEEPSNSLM

PPARγ [2] = test system: T3, PPARγ; test: PPARγ transcription activity assay (PPRE binding), N2a cells; assay type: cell-based
T3 construct: endogenous in cells; host or cells: N2a cells (nuclear extract)
Procedure: Nuclear extracts were prepared from N2a cells using a nuclear extraction kit according to the manufacturer protocol. The binding reaction between PPARγ and PPRE was carried out at 4°C for 16 h using 3 μg of nuclear extracts. The binding activity between PPARγ and PPRE was indicated by the change of optical density (OD) at 405 nm, and an enzyme reaction was measured by HRP-conjugated antibody in complex of PPRE/ PPARγ/antibody.

aged mice = settings: oral administration, ref [35]; cited from earlier work

Glucosylceramide [GlcCer]
depression-like behaviors (D2-Pparg^f/f mice): failed to alleviate
binding affinity for the LBD (SPR) (human PPARγ-LBD): minimal binding affinity
Kd (human PPARγ-full length): 0.036 ± 0.002 µM
PPARγ activity (dual-luciferase) (PPARγ [1]): increased
Kd (human PPARγ AF1 domain): 0.029 ± 0.003 µM
PPARγ transcriptional (DNA binding) activity in N2a cells (PPARγ [2]; Figure 5H, GlcCer, pioglitazone or combination): increased PPARγ transcriptional activity in a dose-dependent manner
PPARγ transcriptional activity, nuclear extracts from N2a cells (PPARγ [2]; pioglitazone (100 nM), GlcCer (10 μM), or their combination, Figure S7F): significantly increased
neuroinflammation and memory deficits (aged mice): alleviate
